Experimental data published in US10807994B2, “Heterocyclic compounds and uses thereof” (NUVATION BIO INC., priority 2017, dated 2020).
Counter-ions that a name gives are not always drawn.

Assays:
WEE1 kinase enzyme = WEE1 kinase enzyme (Homo sapiens (Human), UniProt P30291); experiment: WEE1 IC50 determination, LanthaScreen Terbium labeled TR-FRET kinase assay; type: biochemical; details: WEE1 enzyme 1 nM
Description: IC50 values of compounds against WEE1 kinase enzyme were determined by LanthaScreen™ Terbium Labeled TR-FRET assay. Kinase assays were performed in 1× kinase buffer (# PV6135, Invitrogen, Life Technologies Grand Island, N.Y.) where total reaction volume was 10 μl in low-volume 384-well plates (#4511, Corning). Serially diluted compounds (3-fold) were incubated with WEE1 Enzyme (1 nM) (# PR7373A, Invitrogen, Life Technologies Grand Island, N.Y.) for 10 min, following which a mixture of ATP […] (# A1852, Sigma, St-Louis, Mo.) and fluorescent-PolyGT substrate (200 nM) (# PV3610, Invitrogen, Life Technologies Grand Island, N.Y.) was added and incubated in dark at room temperature for 1 h. After 1 h, 10 μl stop solution containing Terbium labeled antibody (4 nM) (# PV3529, Invitrogen, Life Technologies Grand Island, N.Y.) and EDTA (# E5134, Sigma, St-Louis, Mo.) (20 mM) in TR-FRET dilution buffer (# PV3574, Invitrogen, Life Technologies Grand Island, N.Y.) was added. Readings were taken in a Synergy Neo Plate reader (BioTek, Winooski) at single excitation of 340 nm and Dual emission at 495 nm and 520 nm respectively.
The % activity of test samples was calculated as (Sample−Min)*100/(Max−Min). [Max: DMSO control, complete reaction with enzyme & DMSO and Min: No enzyme & DMSO]. Percent inhibition (100-% activity) was fitted to the “four-parameter logistic model” in XLfit for determination of IC50 values.

A427 cells [1] = experiment: Cell proliferation assay (Cell Titer-Glo), A427 cells; type: cell-based; details: Homo sapiens, A-427, typically 72 hrs post-treatment
Description: (§1) The effects of test compounds were studied in five cell lines with various histotypes. The cancer cells (Table 4) were harvested during the logarithmic growth period and counted. Adjust cell concentrations to the appropriated number with respective medium, and add 90 μL cell suspensions to 96-well plates. After cells were seeded, the plates were shaken gently to distribute cells evenly and incubated at 37° C., 5% CO2 on day 1.
(§2) Cells were treated with test compounds at 9 concentrations within a desired concentration range (e.g. 1.5 nM-10 μM) on day 2 by series diluting the test compound stock solution (10 mM in DMSO) with culture medium. Cell viability was assessed by Cell Titer-Glo® as recommended by Promega (Cat. No.: G7572, Promega) typically 72 hrs post-treatment.
(§3) Cell viability data were plotted using GraphPad Prism (version 5, GraphPad Software, Inc., San Diego, Calif.). In addition, a nonlinear regression model with a sigmoidal dose response and variable slope within GraphPad Prism was used to calculate the IC50 value of individual test compounds.

A427 cells [2] = experiment: Cytotoxicity assay (resazurin), A427 cells, 72 hr; type: cell-based; details: Homo sapiens, A-427, read-out: Cell Viability A427 IC50
Description: (§4) A549 (CCL-185; ATCC) and A427 (HTB-53; ATCC), both lung epithelial cell lines were seeded in their respective medium (DMEM/MEM, 10569044/41090101; Gibco) at a cell count of 1500 cells per 100 μL per well in a 96 well edge plate (167425; ThermoFisher). Cells were allowed to grow at 37° C. for 24 hr in 5% CO2 environment (culture conditions) in a Nuaire incubator (humidified). Serially diluted test compounds (100 μL) within the desired testing concentration ranges were added to the culture plate were further incubated in culture conditions for 72 hr and 96 hr for A427 and A549 respectively. The experiment was terminated at the designated incubation time by replacing the medium with 100 μL of 1 mM of resazurin (R7017; Sigma) prepared in respective culture medium, and the plates were further incubated in culture conditions for 4-6 hr. Fluorescence was recorded using a multimodal plate reader (Biotek Synergy Neo) at an excitation wavelength of 535 nm and emission wavelength of 590 nm to obtain relative fluorescence units. Data analysis was done by subtracting the background fluorescence (only medium blank) value from each reading and then normalizing with the vehicle control (DMSO treated cells) to obtain percent survival/proliferation. Percent survival was then subtracted by 100 to get the percent inhibition of proliferation which was used to calculate IC50 values. Potency of compounds in other cell lines (As-Pc-1, Panc-10.05, MDAMB231, A172) was determined in an analogous manner.

A549 cells = experiment: Cytotoxicity assay (resazurin), A549 cells, 96 hr; type: cell-based; details: Homo sapiens, read-out: Cell Viability A549 IC50
Description: as §4

As-Pc-1 cells = experiment: Cytotoxicity assay (resazurin), As-Pc-1 cells; type: cell-based; details: Homo sapiens, ASPC1, read-out: Cell Viability AsPC-1 IC50
Description: as §4

A172 cells = experiment: Cytotoxicity assay (resazurin), A172 cells; type: cell-based; details: Homo sapiens, A 172, read-out: Cell Viability A172 IC50
Description: as §4

Panc-10.05 cells = experiment: Cytotoxicity assay (resazurin), Panc-10.05 cells; type: cell-based; details: Homo sapiens, Panc1005, read-out: Cell Viability Panc 10.05 IC50
Description: as §4

MDAMB231 cells = experiment: Cytotoxicity assay (resazurin), MDAMB231 cells; type: cell-based; details: Homo sapiens, MDA-MB-231, read-out: Cell Viability MDAMB 231 IC50
Description: as §4

A427 cells [3] = experiment: Cell viability in combination with cisplatin in A427 cells (resazurin); type: cell-based; details: Homo sapiens, A-427, 24 hr 2.5 μM cisplatin
Description: The activity of test compounds in combination with cisplatin in A427 cells was determined. Cells were seeded in a 96 well plate at 2000 cells/well. The next day, cells were treated with 2.5 μM cisplatin or vehicle (1×PBS) and incubated in culture conditions (37° C., 5% CO2) for 24 hr. Following the incubation, culture medium was replaced with medium containing test compound and cisplatin/vehicle, and cells were further incubated in culture conditions for another 72 hr. By this procedure, cisplatin was either continued or discontinued after an initial 24-hr incubation. Addition of test compound was in concentrations needed to obtain an 8-point dose response curve, with concentrations prepared by 3-fold dilution. The assay was terminated upon addition of resazurin, incubation for 4 hr in culture conditions and measurement of fluorescence at excitation and emission wavelengths of 535 and 590 nm, respectively.

A2780 cells = experiment: Cell proliferation assay (Cell Titer-Glo), A2780 cells; type: cell-based; details: Homo sapiens, typically 72 hrs post-treatment
Description: as §1, §2, §3

[4] = then compound + cisplatin 72 hr, read-out: Cell viability IC50 in A427 cells with 2.5 μM cisplatin: 24 hr cisplatin then compound + cisplatin
[5] = then compound alone 72 hr, read-out: Cell viability IC50 in A427 cells with 2.5 μM cisplatin: 24 hr cisplatin then compound

Chain of WEE1 kinase enzyme (P30291 whole entry): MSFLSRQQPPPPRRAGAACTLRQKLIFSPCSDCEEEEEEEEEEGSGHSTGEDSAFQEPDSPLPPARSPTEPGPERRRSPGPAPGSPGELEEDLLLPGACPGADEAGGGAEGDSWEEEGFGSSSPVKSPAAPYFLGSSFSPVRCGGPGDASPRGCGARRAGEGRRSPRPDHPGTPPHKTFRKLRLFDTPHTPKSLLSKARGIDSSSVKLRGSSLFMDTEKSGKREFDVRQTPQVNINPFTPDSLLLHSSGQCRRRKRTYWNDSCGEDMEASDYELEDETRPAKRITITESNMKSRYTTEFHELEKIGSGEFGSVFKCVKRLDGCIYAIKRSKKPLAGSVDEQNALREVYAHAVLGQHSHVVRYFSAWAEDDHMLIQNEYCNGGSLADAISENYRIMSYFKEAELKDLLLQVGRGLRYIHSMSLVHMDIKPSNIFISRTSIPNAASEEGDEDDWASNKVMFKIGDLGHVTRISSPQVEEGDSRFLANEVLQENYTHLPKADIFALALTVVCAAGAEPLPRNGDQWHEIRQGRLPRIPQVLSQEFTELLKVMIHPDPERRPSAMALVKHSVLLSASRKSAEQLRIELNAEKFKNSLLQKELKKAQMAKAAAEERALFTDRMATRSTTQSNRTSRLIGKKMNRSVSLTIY

IC50 (WEE1 kinase enzyme) [µM] | IC50 (A2780 cells) [µM] | SMILES | IC50 (A427 cells [1]) [µM] | IC50 (A427 cells [2]) [µM] | IC50 (A549 cells) [µM] | IC50 (As-Pc-1 cells) [µM] | IC50 (A172 cells) [µM] | IC50 (Panc-10.05 cells) [µM] | IC50 (MDAMB231 cells) [µM] | IC50 (A427 cells [3]; [4]) [µM] | IC50 (A427 cells [3]; [5]) [µM]
0.0735 |  | O=C1c2cnc(Nc3ccc(C4CCNCC4)cc3)nc2OCN1c1c(Cl)cccc1Cl [Example 1.12] | 3.43 | 3.58 | 4.7 | 7.88 | 7.13 | 3.17 | 9.04 |  | 
0.035 |  | O=C1c2cnc(Nc3ccc4c(c3)CNCC4)nc2OCN1c1c(Cl)cccc1Cl [Example 1.24] | 2.85 | 2.96 | 6.45 |  |  |  |  | 0.06 | 0.12
0.028 |  | COc1cc(Nc2ncc3c(n2)OCN(c2c(Cl)cccc2Cl)C3=O)ccc1C1CCNCC1 [Example 1.50, 3-(2,6-dichlorophenyl)-7-(3-methoxy-4-(piperidin-4-yl)phenylamino)-2H-pyrimido[5,4-e][1,3]oxazin-4(3H)-one] |  | 3.48 | 2.79 |  |  |  |  |  | 
0.033 |  | COc1cc(Nc2ncc3c(n2)OCN(c2c(Cl)cccc2Cl)C3=O)ccc1N1CCNCC1 [Example 1.53, 3-(2,6-dichlorophenyl)-7-(3-methoxy-4-(piperazin-1-yl)phenylamino)-2H-pyrimido[5,4-e][1,3]oxazin-4(3H)-one dihydrochloride] |  | 3.61 | 4.72 | 2.41 | 9.68 | 9.34 | 10.5 |  | 
0.106 | 6.8 | N#Cc1cc(Nc2ncc3c(n2)OCN(c2c(Cl)cccc2Cl)C3=O)ccc1N1CCNCC1 [Example 1.55, 5-(3-(2,6-dichlorophenyl)-4-oxo-3,4-dihydro-2H-pyrimido[5,4-e][1,3]oxazin-7-ylamino)-2-(piperazin-1-yl)benzonitrile] |  | 2.32 | 1.59 |  |  |  |  | < 0.014 | 0.53
0.0435 |  | Cc1cc(Nc2ncc3c(n2)OCN(c2c(Cl)cccc2Cl)C3=O)ccc1C1CCNCC1 [Example 1.60] |  | 2.58 | 8.34 | 2.91 | 4.8 | 2.85 | 5.34 |  | 

Further lines, the compound ahead of its results:

SMILES | IC50 (WEE1 kinase enzyme) [µM] | IC50 (A2780 cells) [µM] | IC50 (A427 cells [1]) [µM] | IC50 (A427 cells [2]) [µM] | IC50 (A549 cells) [µM] | IC50 (As-Pc-1 cells) [µM] | IC50 (A172 cells) [µM] | IC50 (Panc-10.05 cells) [µM] | IC50 (MDAMB231 cells) [µM] | IC50 (A427 cells [3]; [4]) [µM] | IC50 (A427 cells [3]; [5]) [µM]
O=C1c2cnc(Nc3ccc(N4CCNCC4)cc3)nc2OCN1c1c(Cl)cccc1Cl [Example 1.5] | 0.069 |  | 4.29 | 3.91 | 3.78 |  |  |  |  |  | 
O=C1c2cnc(Nc3ccc(N4CCNCC4)c(CO)c3)nc2OCN1c1c(Cl)cccc1Cl [Example 1.16] | 0.049 |  | 3.04 | 2.13 | 3.98 |  |  |  |  | < 0.014 | 0.18
CN1CCN(c2ccc(Nc3ncc4c(n3)OCN(c3c(Cl)cccc3Cl)C4=O)cc2CO)CC1 [Example 1.20] | 0.048 |  | 3.64 | 5.5 | 6.02 |  |  |  |  |  | 
O=C1c2cnc(Nc3ccc(N4CCNCC4)cc3)nc2OCN1c1c(F)cccc1Cl [Example 1.27] | 0.052 |  | 7.75 | 6.97 | 4.39 |  |  |  |  |  | 
C[C@@H]1CNCCN1c1ccc(Nc2ncc3c(n2)OCN(c2c(Cl)cccc2Cl)C3=O)cc1 [Example 1.49, (R)-3-(2,6-dichlorophenyl)-7-(4-(2-methylpiperazin-1-yl)phenylamino)-2H-pyrimido[5,4-e][1,3]oxazin-4(3H)-one] | 0.041 |  |  | 5.42 | 4.39 |  |  |  |  |  | 
O=C1c2cnc(Nc3ccc4c(c3)CNCC43CC3)nc2OCN1c1c(Cl)cccc1Cl [Example 1.51, 3-(2,6-dichlorophenyl)-7-(2′,3′-dihydro-1′H-spiro[cyclopropane-1,4′-isoquinoline]-7′-ylamino)-2H-pyrimido[5,4-e][1,3]oxazin-4(3H)-one] | 0.011 |  |  | 3.04 | 6.45 | 3.21 | 8 | 3.34 | 8.76 |  | 
CN1CCC(c2ccc(Nc3ncc4c(n3)OCN(c3c(Cl)cccc3Cl)C4=O)cc2)CC1 [Example 1.52, 3-(2,6-dichlorophenyl)-7-(4-(1-methylpiperidin-4-yl)phenylamino)-2H-pyrimido[5,4-e][1,3]oxazin-4(3H)-one] | 0.0505 |  |  | 3.35 | 4.72 |  |  |  |  |  | 
CNCCNc1ccc(Nc2ncc3c(n2)OCN(c2c(Cl)cccc2Cl)C3=O)cc1 [Example 1.54, 3-(2,6-dichlorophenyl)-7-(4-(2-(methylamino)ethylamino)phenylamino)-2H-pyrimido[5,4-e][1,3]oxazin-4(3H)-one Hydrochloride] | 0.2 |  |  | 10.5 | 9.58 |  |  |  |  |  | 
O=C1c2cnc(Nc3ccc(N4CCCC4)cc3)nc2OCN1c1c(Cl)cccc1Cl [Example 1.56, 3-(2,6-dichlorophenyl)-7-(4-(pyrrolidin-1-yl)phenylamino)-2H-pyrimido[5,4-e][1,3]oxazin-4(3H)-one] | > 5 |  |  | 10.5 | 1.86 |  |  |  |  |  | 
CNCC(=O)N1CCN(c2ccc(Nc3ncc4c(n3)OCN(c3c(Cl)cccc3Cl)C4=O)cc2)CC1 [Example 1.57, 3-(2,6-dichlorophenyl)-7-(4-(4-(2-(methylamino)acetyl)piperazin-1-yl)phenylamino)-2H-pyrimido[5,4-e][1,3]oxazin-4(3H)-one hydrochloride] | 0.101 |  |  | 4.86 | 6.23 |  |  |  |  |  | 
O=C1c2cnc(Nc3ccc(N4CCN(CCO)CC4)cc3)nc2OCN1c1c(Cl)cccc1Cl [Example 1.58, 3-(2,6-dichlorophenyl)-7-(4-(4-(2-hydroxyethyl)piperazin-1-yl)phenylamino)-2H-pyrimido[5,4-e][1,3]oxazin-4(3H)-one] | 0.234 |  |  | 7.12 | 12.3 |  |  |  |  |  | 
CC1(C)NCCc2cc(Nc3ncc4c(n3)OCN(c3c(Cl)cccc3Cl)C4=O)ccc21 [Example 1.227] | 0.021 |  |  | 2.2 | 9.04 | 2.94 | 6.62 | 4.93 | 8.78 |  | 
